From patent US8778876B2, “Small-molecule inhibitors of Dengue and West Nile virus proteases” (The Board of Regents of the University of Texas System, priority 2011, dated 2014)
Structures can show the parent of a compound that is named as a salt.

How the values were obtained:
[1] = target: T1, Bovine pancreatic trypsin (Bos taurus, UniProt P00760); experiment: Trypsin inhibition assay with chromogenic BAPNA substrate; format: biochemical; settings: analog at 100 μM
T1 construct: purchased Sigma Aldrich; host or cells: bovine pancreas
T1 sequence (P00760 24-246): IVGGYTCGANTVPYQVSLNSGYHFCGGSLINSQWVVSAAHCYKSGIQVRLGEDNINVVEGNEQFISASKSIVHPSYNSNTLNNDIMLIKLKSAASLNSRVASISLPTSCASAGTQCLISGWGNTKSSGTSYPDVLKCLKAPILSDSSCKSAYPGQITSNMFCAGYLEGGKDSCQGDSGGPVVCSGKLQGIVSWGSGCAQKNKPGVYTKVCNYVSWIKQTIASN
Protocol: Bovine pancreatic trypsin (Sigma Aldrich, St. Louis) and N-α-Benzoyl-DL-arginine 4-nitroanilide hydrochloride (BAPNA) substrate (Sigma Aldrich, St. Louis) were used for trypsin inhibition assays. Trypsin stock solutions were prepared in sodium phosphate buffer (67 mM [pH 7.6]). Trypsin (60 μM) was incubated with chromogenic BAPNA (500 μM) and release of the para-nitroanilide product monitored using a DU640 spectrophotometer (Beckman Coulter, USA) to measure absorption at 415 nm. The slope of the progress curve was determined using linear regression and used as a baseline for comparison with inhibitor reactions.

[2] = physchem; settings: pH 9, aqueous with cosolvent or surfactant or cyclodextrin, kinetic from dmso stock
[3] = target: DEN2V NS2B-NS3pro (Dengue virus type 2, UniProt Q91H74); experiment: Steady-state kinetics of inhibitors of DEN2V NS2B-NS3pro (Boc-GRR-AMC substrate, Dynafit); format: biochemical, Dengue 2 virus
Sequence of DEN2V NS2B-NS3pro (Q91H74 entry or part of it, added parts left off): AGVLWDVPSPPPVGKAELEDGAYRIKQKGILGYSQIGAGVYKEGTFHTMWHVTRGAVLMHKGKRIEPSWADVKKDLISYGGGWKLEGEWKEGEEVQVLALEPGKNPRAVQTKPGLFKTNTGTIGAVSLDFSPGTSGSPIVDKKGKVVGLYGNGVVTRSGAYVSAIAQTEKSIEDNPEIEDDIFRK
Sequence of DEN2V NS2B-NS3pro (Q91H74 entry or part of it partner, added parts left off): as the sequence (Q91H74 entry or part of it, added parts left off) above

[4] = target: T1, Bovine pancreatic trypsin; experiment: biochemical; format: biochemical
[5] = tested on: cells; settings: Yip et al., 2006; cited from earlier work
[6] = target: WNV NS2B-NS3pro (West Nile virus, UniProt P06935); experiment: Steady-state kinetics of inhibitors of WNV NS2B-NS3pro; format: biochemical
Sequence of WNV NS2B-NS3pro (P06935 1502-1679 limits assumed): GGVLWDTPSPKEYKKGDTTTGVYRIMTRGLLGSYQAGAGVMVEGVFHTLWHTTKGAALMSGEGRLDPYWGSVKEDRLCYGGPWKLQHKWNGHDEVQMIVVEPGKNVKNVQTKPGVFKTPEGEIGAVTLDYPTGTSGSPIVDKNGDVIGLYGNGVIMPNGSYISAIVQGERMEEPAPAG
Sequence of WNV NS2B-NS3pro (P06935 1424-1463 partner limits assumed): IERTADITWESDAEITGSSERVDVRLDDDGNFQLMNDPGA

Row | Structure (SMILES) | Inhibition of trypsin cleavage of the chromogenic substrate [1] | solubility [2] [µM] | Ki ([3]; Ki1, Table 4, ARDP0006 analogs, DEN2V NS2B-NS3pro) [µM] | Mechanism ([3]; Table 4, ARDP0006 analogs, DEN2V NS2B-NS3pro) | Mechanism (trypsin inhibition) [4] | Ki ([4]; Ki2 trypsin) [µM] | ED50 (cell viability reduced by 50%) [5] | Ki ([3]; Ki1, Table 1, DEN2V NS2B-NS3pro) [µM] | Ki ([3]; Ki2, Table 1, DEN2V NS2B-NS3pro) [µM] | Mechanism ([3]; Table 1, DEN2V NS2B-NS3pro, HTS-identified hits) | Ki ([6]; Ki1, Table 2, WNV NS2B-NS3pro) [µM] | Ki ([6]; Ki2, Table 2, WNV NS2B-NS3pro) [µM] | Mechanism ([6]; Table 2, WNV NS2B-NS3pro)
1 | O=C1c2c(O)ccc([N+](=O)[O-])c2C(=O)c2c([N+](=O)[O-])ccc(O)c21 [ARDP0006, reference compound] | not the chromogenic substrate | > 10 | 432 ± 46 | competitive inhibition model | uncompetitive trypsin inhibitor | 13 | – | – | – | – | – | – | –
2 | CCCCC(CC)CNC(=N)NC(=N)NCCCCCCNC(=N)NC(=N)NCC(CC)CCCC (stereo not shown) [MS28, Alexidine hydrochloride, reference compound] | – | – | – | – | – | – | low micromolar | 41 ± 3 | 84 ± 16 | Mixed | 12 | 28 ± 5 | Mixed
